Reference: US20240109905A1, “4-ALKOXY-6-OXO-PYRIDAZINE DERIVATIVES MODULATING NLRP3” (JANSSEN PHARMACEUTICA NV, priority 2021, published 2024)

Tests used:
IL-1β = test: PBMC assay: IL-1β release after LPS stimulation; type: cell-based; conditions: PBMC; human PBMCs, 30 min compound, 100 ng/ml LPS for 6 hrs, MSD; read-out: IL1β AC50
Procedure: The activity of a compound according to the present invention can be assessed by in vitro methods.
(§1) Peripheral venous blood was collected from healthy individuals and human peripheral blood mononuclear cells (PBMCs) were isolated from blood by Ficoll-Histopaque (Sigma-Aldrich, A0561) density gradient centrifugation. After isolation, PBMCs were stored in liquid nitrogen for later use. Upon thawing, PBMC cell viability was determined in growth medium (RPMI media supplemented with 10% fetal bovine serum, 1% Pen-Strep and 1% L-glutamine). Compounds were spotted in a 1:3 serial dilution in DMSO and diluted to the final concentration in 30 μl medium in 96 well plates (Falcon, 353072). PBMCs were added at a density of 7.5×10^4 cells per well and incubated for 30 min in a 5% CO2 incubator at 37° C. LPS stimulation was performed by addition of 100 ng/ml LPS (final concentration, Invivogen, tlrl-smlps) for 6 hrs followed by collection of cellular supernatant and the analysis of IL-1β (μM) and TNF cytokines levels (μM) via MSD technology according to manufacturers' guidelines (MSD, K151A0H).
(§2) IC50 and AC50 values (for […]) and EC50 and AC50 values (TNF) were obtained on compounds of the invention/examples, and the AC50 values are depicted in the following table: […]

TNF = test: PBMC assay: TNF cytokine level after LPS stimulation; type: cell-based; conditions: PBMC; human PBMCs, 30 min compound, 100 ng/ml LPS for 6 hrs, MSD
Procedure: as §1, §2

Row | Compound | AC50 (IL-1β) [µM] | AC50 (TNF) [µM]
1 | O=C(Cn1nc(C2CC2)c(OCC23CC(CO2)C3)cc1=O)Nc1ccc2nncn2n1 [Compound 32E] | 14.6 | > 10
2 | CC(C)COc1cc(=O)n(CC(=O)Nc2nc3ccc(C#N)cc3o2)nc1C(C)C [Compound 137] | 10.2 | > 20
3 | CC(C)COc1cc(=O)n(CC(=O)Nc2nc3ccc(F)cn3n2)nc1C(C)C [Compound 69] | 0.25 | > 20
4 | CC(C)COc1cc(=O)n(CC(=O)Nc2nc3ncccc3o2)nc1C(C)C [Compound 140] | 11.8 | > 20
5 | CC(C)COc1cc(=O)n(CC(=O)NC23CCC(C(=O)O)(CC2)C3)nc1C(C)C [Compound 104] | 1.12 | > 20
6 | CC(C)c1nn(CC(=O)Nc2ccc3nncn3c2)c(=O)cc1OC1CCNC1 (stereo not drawn) [Compound 159] | > 20 | > 20
7 | Cc1ccn2nc(NC(=O)Cn3nc(C(C)C)c(OCC(C)C)cc3=O)cc2n1 [Compound 120] | 2.66 | > 20
8 | CCOc1cc(=O)n(CC(=O)Nc2ccc3nncn3c2)nc1C1CC1 [Compound 33D] | 1.25 | > 10
9 | Cc1cnc(C23CC(NC(=O)Cn4nc(C(C)C)c(OCC(C)C)cc4=O)(C2)C3)o1 [Compound 139, 2-(4-isobutoxy-3-isopropyl-6-oxopyridazin-1(6H)-yl)-N-(3-(5-methyloxazol-2-yl)bicyclo[1.1.1]pentan-1-yl)acetamide] | 10.8 | > 20
10 | CC(C)c1nn(CC(=O)Nc2ccc3nncn3c2)c(=O)c(Cl)c1OCCC(F)(F)F [Compound 138] | 10.7 | > 20
11 | CC(C)COc1c(C(C)C)nn(CC(=O)Nc2ccc3nncn3c2)c(=O)c1C(F)(F)F [Compound 163] | > 20 | > 20
12 | O=C(Cn1nc(C2CC2)c(OC2CCOCC2)cc1=O)Nc1ccc2nncn2c1 [Compound 30G] | 14.6 | > 10
13 | CC(C)COc1cc(=O)n(CC(=O)NC23CC(C(N)C(F)(F)F)(C2)C3)nc1C(C)C (stereo not drawn) [Compound 107] | 1.31 | > 20
14 | CN(C)c1nn(CC(=O)Nc2ccc3nncn3c2)c(=O)cc1OCC(F)(F)F [Compound 106] | 1.21 | > 20
15 | CC(C)c1nn(CC(=O)Nc2ccc3nncn3n2)c(=O)cc1Oc1ccccc1 [Compound 143] | 18 | > 20
16 | COc1nn(CC(=O)Nc2ccc3nncn3n2)c(=O)cc1OCC(F)(F)F [Compound 154] | > 20 | > 20
17 | CC(C)c1nn(CC(=O)Nc2ccc3nncn3c2)c(=O)c(Cl)c1OCC(C)(F)F [Compound 93] | 0.77 | 8.92
18 | CC(C)COc1cc(=O)n(CC(=O)Nc2nc3ccccc3o2)nc1C(C)C [Compound 128] | 4.28 | > 20
19 | COC(=O)C12CC(NC(=O)Cn3nc(C(C)C)c(OCC(C)C)cc3=O)(C1)C2 [Compound 36, methyl 3-(2-(4-isobutoxy-3-isopropyl-6-oxopyridazin-1(6H)-yl)acetamido)bicyclo[1.1.1]pentane-1-carboxylate] | 0.01 | 3.81
20 | CC(C)COc1cc(=O)n(CC(=O)NC23CC(C(F)F)(C2)C3)nc1C(C)C [Compound 83] | 0.51 | > 20
21 | CC(C)COc1cc(=O)n(CC(=O)NC23CC(F)(C2)C3)nc1C(C)C [Compound 105] | 1.21 | > 20
22 | CCCOc1c(C(C)C)nn(CC(=O)Nc2ccc3nncn3n2)c(=O)c1Cl [Compound 48] | 0.09 | 4.98
23 | CC(C)COc1cc(=O)n(CC(=O)Nc2cn3ccncc3n2)nc1C(C)C [Compound 97] | 0.95 | 5.01
24 | CC(C)c1nn(CC(=O)Nc2ccc3nncn3c2)c(=O)c(Cl)c1OCC1CC1 [Compound 74] | 0.36 | > 20
25 | CC(C)COc1cc(=O)n(CC(=O)Nc2nc3cc(C(F)(F)F)ccn3n2)nc1C(C)C [Compound 87] | 0.66 | > 20
26 | CC(C)c1nn(CC(=O)Nc2ccc3nncn3c2)c(=O)c(Cl)c1OCC(F)(F)F [Compound 114] | 1.85 | > 20

Row | Compound | AC50 (IL-1β) [µM] | AC50 (TNF) [µM]
27 | CC(C)COc1cc(=O)n(CC(=O)NC23CC(S(=O)(=O)C4CC4)(C2)C3)nc1C(C)C [Compound 116] | 1.91 | > 20
28 | CC(C)c1nn(CC(=O)Nc2ccc3nncn3c2)c(=O)cc1OCC(C)(F)F [Compound 8F] | 0.19 | > 10
29 | CC(C)COc1cc(=O)n(CC(=O)NC23CC(N4CCOCC4)(C2)C3)nc1C(C)C [Compound 94] | 0.78 | > 20
30 | CC(C)c1nn(CC(=O)Nc2ccc3nncn3n2)c(=O)c(Cl)c1OCC1CC1 [Compound 44, N-([1,2,4]triazolo[4,3-b]pyridazin-6-yl)-2-(5-chloro-4-(cyclopropylmethoxy)-3-isopropyl-6-oxopyridazin-1(6H)-yl)acetamide] | 0.07 | 3.53
31 | CC(C)COc1cc(=O)n(CC(=O)N[C@H]2C[C@]3(CCN3C)C2)nc1C(C)C [Compound 89, 2-(4-isobutoxy-3-isopropyl-6-oxopyridazin-1(6H)-yl)-N-((4s,6r)-1-methyl-1-azaspiro[3.3]heptan-6-yl)acetamide] | 0.67 | > 20
32 | CC(C)COc1cc(=O)n(CC(=O)NC23CC(C(=O)O)(C2)C3)nc1C(C)C [Compound 131, 3-(2-(4-isobutoxy-3-isopropyl-6-oxopyridazin-1(6H)-yl)acetamido)bicyclo[1.1.1]pentane-1-carboxylic acid] | 9.63 | > 20
33 | O=C(Cn1nc(OCC(F)(F)F)c(OCC(F)(F)F)cc1=O)Nc1ccc2nncn2n1 [Compound 142] | 15.7 | > 20
34 | Cc1nnc(C23CC(NC(=O)Cn4nc(C(C)C)c(OCC(C)C)cc4=O)(C2)C3)o1 [Compound 119, 2-(4-isobutoxy-3-isopropyl-6-oxopyridazin-1(6H)-yl)-N-(3-(5-methyl-1,3,4-oxadiazol-2-yl)bicyclo[1.1.1]pentan-1-yl)acetamide] | 2.52 | > 20
35 | CC(C)COc1cc(=O)n(CC(=O)Nc2nc3ccc(C#N)cc3n2C)nc1C(C)C [Compound 146] | > 20 | > 20
36 | CC(C)COc1cc(=O)n(CC(=O)Nc2ccc3nncn3c2)nc1N(C)C [Compound 70] | 0.26 | > 20
37 | CC(C)COc1cc(=O)n(CC(=O)N[C@]23CC[C@@](NC(=O)OC(C)(C)C)(CC2)C3)nc1C(C)C [Compound 122, tert-butyl ((1r,4r)-4-(2-(4-isobutoxy-3-isopropyl-6-oxopyridazin-1(6H)-yl)acetamido)bicyclo[2.2.1]heptan-1-yl)carbamate] | 2.81 | > 20
38 | CC(C)c1nn(CC(=O)Nc2ccc3nncn3c2)c(=O)cc1OCC1CNC1 [Compound 160] | > 20 | > 20
39 | CC(C)COc1c(C(C)C)nn(CC(=O)Nc2ccc3nncn3n2)c(=O)c1Cl [Compound 39] | 0.02 | 0.6
40 | CC(C)COc1c(C(C)C)nn(CC(=O)Nc2ccc3nncn3c2)c(=O)c1Cl [Compound 60, N-([1,2,4]triazolo[4,3-a]pyridin-6-yl)-2-(5-chloro-4-isobutoxy-3-isopropyl-6-oxopyridazin-1(6H)-yl)acetamide] | 0.16 | > 20
41 | CC(C)COc1cc(=O)n(CC(=O)NC23CC(C2)C3)nc1C(C)C [Compound 110] | 1.44 | > 20
42 | CC(C)COc1cc(=O)n(CC(=O)NC23CCC(N)(CC2)CC3)nc1C(C)C [Compound 99] | 0.97 | > 20
43 | Cc1ccc2nc(NC(=O)Cn3nc(C(C)C)c(OCC(C)C)cc3=O)n(C)c2c1 [Compound 145] | > 20 | > 20
44 | CC(C)c1nn(CC(=O)Nc2ccc3nncn3c2)c(=O)cc1OCC(C)(C)F [Compound 11F] | 0.32 | > 10
45 | CC(C)COc1cc(=O)n(CC(=O)NC23CC(C(C)(C)O)(C2)C3)nc1C(C)C [Compound 85, N-(3-(2-hydroxypropan-2-yl)bicyclo[1.1.1]pentan-1-yl)-2-(4-isobutoxy-3-isopropyl-6-oxopyridazin-1(6H)-yl)acetamide] | 0.65 | > 20
46 | CC(C)c1nn(CC(=O)Nc2ccc3nncn3c2)c(=O)cc1OCC(F)(F)F [Compound 23F] | 0.16 | > 10
47 | COc1cc(=O)n(CC(=O)Nc2ccc3nncn3n2)nc1C(C)C [Compound 27C, N-([1,2,4]triazolo[4,3-b]pyridazin-6-yl)-2-(3-isopropyl-4-methoxy-6-oxopyridazin-1(6H)-yl)acetamide] | 13.3 | > 10
48 | Cc1ccn2nc(NC(=O)Cn3nc(C(C)C)c(OCC(C)C)cc3=O)nc2c1 [Compound 91] | 0.69 | > 20
49 | COC(=O)C12CCC(NC(=O)Cn3nc(C(C)C)c(OCC(C)C)cc3=O)(CC1)CC2 [Compound 45] | 0.07 | > 20
50 | CC(C)COc1cc(=O)n(CC(=O)NC23C4C5C2C2C3C4C52C(=O)O)nc1C(C)C (stereo not drawn) [Compound 125] | 3.41 | > 20
51 | CC(C)COc1cc(=O)n(CC(=O)NC23CCC(O)(CC2)CC3)nc1C(C)C [Compound 88] | 0.66 | > 20
